# Laboratory results as given in US20240000806A1, “METHODS AND MATERIALS FOR INHIBITING CB1 ACTIVITY” (University of Pittsburgh - Of the Commonwealth System of …, priority 2020, published 2024).
# Molecular target: CB1 (CNR1) (Homo sapiens, UniProt P21554)
# Experiment: cAMP CNR1 Hunter cell line antagonist assay (CB1 assay)
# Format: cell-based
# Conditions: antagonist mode, cAMP CNR1 Hunter cells, EC80 agonist; read-out: CB1 assay, Efficacy (IC50)
# In short: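 Antagonist mode in CNR1 Hunter cells: compound preincubated 30 min at 37 °C, then EC80 agonist for 30 min at 37 °C. cAMP measured by enzyme-fragment complementation chemiluminescence after lysis (1 h) and detection (3 h, room temperature); IC50 fitted from the dose response.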
# Chain of CB1 (CNR1) (P21554 whole entry): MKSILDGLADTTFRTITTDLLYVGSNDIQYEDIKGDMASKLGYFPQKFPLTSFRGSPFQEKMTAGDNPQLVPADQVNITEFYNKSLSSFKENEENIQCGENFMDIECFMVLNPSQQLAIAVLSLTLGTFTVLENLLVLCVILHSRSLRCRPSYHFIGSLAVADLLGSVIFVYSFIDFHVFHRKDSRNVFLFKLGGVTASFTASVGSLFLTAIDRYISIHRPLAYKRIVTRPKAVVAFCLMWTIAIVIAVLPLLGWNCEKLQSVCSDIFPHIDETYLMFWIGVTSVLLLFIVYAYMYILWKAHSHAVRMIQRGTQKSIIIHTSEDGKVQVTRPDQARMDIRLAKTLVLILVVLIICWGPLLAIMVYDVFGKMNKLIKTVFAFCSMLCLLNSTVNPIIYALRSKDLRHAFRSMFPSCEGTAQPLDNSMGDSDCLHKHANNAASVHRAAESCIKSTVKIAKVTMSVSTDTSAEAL
row,Compound,IC50 [µM]
1,CCC1Oc2c(cc(Cl)cc2S(=O)(=O)Nc2ccc(F)cc2F)NC1=O (stereo not drawn) [BC19748],≥ 25
2,O=C1COc2c(cc(Br)cc2S(=O)(=O)NCc2ccc(OC(F)(F)F)cc2)N1 [BC19385],≥ 25
3,O=C1CCOc2cc(S(=O)(=O)Nc3ccc(F)cc3F)c(Br)cc2N1 [BC19693],1 to 25
4,CCC1Oc2c(cc(Cl)cc2S(=O)(=O)Nc2ccc(F)cc2Cl)NC1=O (stereo not drawn) [BC19756],1 to 25
5,CC(C)c1ccc(NS(=O)(=O)c2cc3c(cc2Cl)NC(=O)CO3)cc1 [BC19136],< 1
6,O=C1NCCOc2c1cc(Br)cc2S(=O)(=O)Nc1ccc(F)cc1F [BC19608],≥ 25
7,Cc1ccc(NS(=O)(=O)c2cc3c(cc2Br)N(C)C(=O)C(C)O3)cc1Cl (stereo not drawn) [BC19797],≥ 25
8,CS(=O)(=O)c1cc2c(c(S(=O)(=O)Nc3ccc(F)cc3F)c1)OCC(=O)N2 [BC19425],≥ 25
9,N#Cc1ccc(NS(=O)(=O)c2cc3c(cc2Br)NC(=O)CCO3)cc1 [BC19695],≥ 25
10,COc1ccc(NS(=O)(=O)c2cc(Br)cc3c2OCC(=O)N3)cc1Cl [BC19171],1 to 25
11,CCC1Oc2cc(S(=O)(=O)NCc3ccc(OC(F)(F)F)cc3)c(Br)cc2NC1=O (stereo not drawn) [BC19369],≥ 25
12,CCc1ccc(NS(=O)(=O)c2cc(Br)cc3c2OC(CC(C)C)C(=O)N3)cc1 (stereo not drawn) [BC19763],1 to 25
13,Cc1c(Cl)cc2c(c1S(=O)(=O)Nc1ccc(Cl)cc1)OCC(=O)N2 [BC19434],≥ 25
14,CC1Oc2cc(S(=O)(=O)Nc3ccc(Cl)cc3)c(Cl)cc2NC1=O (stereo not drawn) [BC19696],1 to 25
15,CCC1Oc2c(cc(Br)cc2S(=O)(=O)Nc2ccc(F)c(F)c2)N(C)C1=O (stereo not drawn) [BC19925],1 to 25
16,O=C1CCOc2cc(S(=O)(=O)Nc3cccc(Cl)c3)c(Br)cc2N1 [BC19655],≥ 25
17,CCc1cccc(NS(=O)(=O)c2cc3c(cc2Br)NC(=O)C(CC(C)C)O3)c1 (stereo not drawn) [BC19772],1 to 25
18,O=C1NCCOc2c1cc(Br)cc2S(=O)(=O)Nc1ccc(F)c(F)c1 [BC19551],≥ 25
19,O=C1COc2c(cc(Br)cc2S(=O)(=O)Nc2ccc(F)cc2F)N1 [BC19178],< 1
20,CC1Oc2c(cc(Br)cc2S(=O)(=O)Nc2ccc(C(C)C)cc2)N(C)C1=O (stereo not drawn) [BC19793],≥ 25
21,CCc1ccc(NS(=O)(=O)c2cc3c(cc2Br)NC(=O)CCO3)cc1 [BC19690],< 1
22,CCC1Oc2cc(S(=O)(=O)Nc3cccc(SC)c3)c(Cl)cc2NC1=O (stereo not drawn) [BC19213],≥ 25

row,Compound,IC50 [µM]
1,CCC1Oc2c(cc(Br)cc2S(=O)(=O)Nc2ccc(Cl)cc2)NC1=O (stereo not drawn) [BC19290],≥ 25
2,Cc1ccc(NS(=O)(=O)c2cc3c(cc2Cl)NC(=O)CO3)cc1Cl [BC19165],1 to 25
3,CC(=O)N1c2cc(S(=O)(=O)N3CCCC3)ccc2NC(=O)C1C (stereo not drawn) [BC19182],< 1
4,CC1Oc2c(cc(Cl)cc2S(=O)(=O)Nc2ccc(C#N)cc2)NC1=O (stereo not drawn) [BC19730],1 to 25
5,CCc1cccc(NS(=O)(=O)c2cc(Br)cc3c2OC(C)C(=O)N3)c1 (stereo not drawn) [BC19288],1 to 25
6,O=C1COc2cc(S(=O)(=O)NCc3ccc(C(F)(F)F)cc3)c(Br)cc2N1 [BC19391],≥ 25
7,CCC1Oc2cc(S(=O)(=O)Nc3ccccc3)c(Cl)cc2NC1=O (stereo not drawn) [BC19737],1 to 25
8,CC1Oc2c(cc(Br)cc2S(=O)(=O)NCc2ccc(F)cc2F)NC1=O (stereo not drawn) [BC19362],≥ 25
9,CCC1Oc2c(cc(Br)cc2S(=O)(=O)Nc2ccc(C)c(Cl)c2)N(C)C1=O (stereo not drawn) [BC19937],≥ 25
10,CC1Oc2cc(S(=O)(=O)Nc3cccc(F)c3)c(Cl)cc2NC1=O (stereo not drawn) [BC19713],1 to 25
11,CS(=O)(=O)c1cc2c(c(S(=O)(=O)Nc3ccc(F)cc3)c1)OCC(=O)N2 [BC19430],≥ 25
12,CCC1Oc2cc(S(=O)(=O)Nc3cccc(Cl)c3)c(Cl)cc2NC1=O (stereo not drawn) [BC19751],< 1
13,CCC1Oc2cc(S(=O)(=O)Nc3ccc(F)c(F)c3)c(Cl)cc2NC1=O (stereo not drawn) [BC19735],≥ 25
14,CCc1ccc(NS(=O)(=O)c2cc3c(cc2Cl)NC(=O)C(C)O3)cc1 (stereo not drawn) [BC19702],≥ 25
15,CCC1Oc2cc(S(=O)(=O)Nc3ccc(F)cc3Cl)c(Cl)cc2NC1=O (stereo not drawn) [BC19755],1 to 25
16,CC(C)c1ccc(NS(=O)(=O)c2cc(Cl)cc3c2OCC(=O)N3)cc1 [BC19174],≥ 25
17,CC1Oc2cc(S(=O)(=O)N3CCCC3)c(Cl)cc2NC1=O (stereo not drawn) [BC19208],≥ 25
18,CC1Oc2cc(S(=O)(=O)Nc3ccc(F)cc3Cl)c(Cl)cc2NC1=O (stereo not drawn) [BC19719],1 to 25
19,CCC1Oc2cc(S(=O)(=O)Nc3ccc(OC)cc3)c(Cl)cc2NC1=O (stereo not drawn) [BC19211],1 to 25
20,CCc1ccc(NS(=O)(=O)c2cc3c(cc2Br)NC(=O)C(CC(C)C)O3)cc1 (stereo not drawn) [BC19764],1 to 25
21,COc1ccc(NS(=O)(=O)c2cc3c(cc2Br)NC(=O)CCO3)cc1Cl [BC19694],1 to 25
22,Cc1c(Cl)cc2c(c1S(=O)(=O)Nc1ccc(F)c(F)c1)OCC(=O)N2 [BC19489],≥ 25

row,Compound,IC50 [µM]
1,CC1Oc2cc(S(=O)(=O)Nc3ccc(F)cc3)c(Br)cc2N(C)C1=O (stereo not drawn) [BC19910],≥ 25
2,CCC1Oc2c(cc(Br)cc2S(=O)(=O)Nc2cccc(F)c2)NC1=O (stereo not drawn) [BC19231],≥ 25
3,CCc1ccc(NS(=O)(=O)c2cc(Cl)cc3c2OC(C)C(=O)N3)cc1 (stereo not drawn) [BC19703],1 to 25
4,COc1ccc(NS(=O)(=O)c2cc(S(C)(=O)=O)cc3c2OCC(=O)N3)cc1Cl [BC19429],≥ 25
5,CC1Oc2cc(S(=O)(=O)Nc3ccccc3)c(Br)cc2N(C)C1=O (stereo not drawn) [BC19790],1 to 25
6,O=C1CCOc2c(cc(Br)cc2S(=O)(=O)Nc2ccc(Cl)cc2)N1 [BC19685],≥ 25
7,COc1ccc(NS(=O)(=O)c2cc(S(C)(=O)=O)cc3c2OCC(=O)N3)cc1 [BC19485],≥ 25
8,CC1Oc2cc(S(=O)(=O)Nc3ccc(Cl)cc3)c(Br)cc2N(C)C1=O (stereo not drawn) [BC19792],≥ 25
9,CCC1Oc2cc(S(=O)(=O)Nc3cccc(F)c3)c(Br)cc2NC1=O (stereo not drawn) [BC19220],≥ 25
10,CC1Oc2cc(S(=O)(=O)NC3CCC(C(C)(C)C)CC3)c(Br)cc2NC1=O (stereo not drawn) [BC19361],1 to 25
11,COc1ccc(NS(=O)(=O)c2cc(Br)cc3c2OC(CC(C)C)C(=O)N3)cc1Cl (stereo not drawn) [BC19779],≥ 25
12,COc1ccc(NS(=O)(=O)c2cc(Cl)cc3c2OC(C)C(=O)N3)cc1 (stereo not drawn) [BC19707],≥ 25
13,CCC1Oc2cc(S(=O)(=O)Nc3ccc(Cl)cc3)c(Br)cc2NC1=O (stereo not drawn) [BC19286],≥ 25
14,Cc1ccc(NS(=O)(=O)c2c(C)c(Cl)cc3c2OCC(=O)N3)cc1 [BC19432],≥ 25
15,CC1Oc2c(cc(Cl)cc2S(=O)(=O)Nc2ccc(F)cc2Cl)NC1=O (stereo not drawn) [BC19720],≥ 25
16,CC1Oc2c(cc(Br)cc2S(=O)(=O)NC2CCC(O)CC2)NC1=O (stereo not drawn) [BC19366],≥ 25
17,CCc1cccc(NS(=O)(=O)c2cc(Cl)cc3c2OC(C)C(=O)N3)c1 (stereo not drawn) [BC19712],≥ 25
18,CC1Oc2cc(S(=O)(=O)Nc3ccc(OC(F)(F)F)cc3)c(Cl)cc2NC1=O (stereo not drawn) [BC19354],≥ 25
19,CCS(=O)(=O)c1cc2c(c(S(=O)(=O)Nc3ccc(C#N)cc3)c1)OCC(=O)N2 [BC19548],≥ 25
20,CC1Oc2c(cc(Br)cc2S(=O)(=O)NCc2ccc(OC(F)(F)F)cc2)NC1=O (stereo not drawn) [BC19363],1 to 25
21,Cc1ccc(NS(=O)(=O)c2cc(Br)cc3c2OC(C)C(=O)N3C)cc1 (stereo not drawn) [BC19906],≥ 25
22,CC(C)CC1Oc2cc(S(=O)(=O)Nc3ccccc3)c(Br)cc2NC1=O (stereo not drawn) [BC19762],≥ 25
